Data taken from ChEMBL document CHEMBL3872204, “Synthesis and immunopotentiating activity of novel isoxazoline functionalized coumarins” (Eur J Med Chem, 2016).
The source made the active and inactive calls. No cut-off for these calls is given here.

Legend:
Type in all cases: functional, cell-based
Splenic lymphocyte [1] = assay: Immunopotentiating activity in splenic lymphocytes (unknown origin) assessed as effect on proliferation by measuring cell viability pretreated followed by incubation of lymphocytes with LPS for 48 hrs by MTT assay
Splenic lymphocyte [2] = assay: Immunopotentiating activity in splenic lymphocytes (unknown origin) assessed as effect on proliferation by measuring cell viability pretreated followed by incubation of lymphocytes with ConA for 48 hrs by MTT assay
Splenic lymphocyte [3] = assay: Immunopotentiating activity in splenic lymphocytes (unknown origin) assessed as effect on proliferation by measuring cell viability at 10 ug/ml pretreated followed by incubation of lymphocytes with ConA for 48 hrs by MTT assay
Splenic lymphocyte [4] = assay: Immunopotentiating activity in splenic lymphocytes (unknown origin) assessed as effect on proliferation by measuring cell viability at 0.1 to 1 ug/ml pretreated followed by incubation of lymphocytes with LPS for 48 hrs by MTT assay
Splenic lymphocyte [5] = assay: Immunopotentiating activity in splenic lymphocytes (unknown origin) assessed as effect on proliferation by measuring cell viability at 0.1 to 1 ug/ml pretreated followed by incubation of lymphocytes with ConA for 48 hrs by MTT assay
Splenic lymphocyte [6] = assay: Immunopotentiating activity in splenic lymphocytes (unknown origin) assessed as effect on proliferation by measuring cell viability at 10 ug/ml pretreated followed by incubation of lymphocytes with LPS for 48 hrs by MTT assay

Row | SMILES | Activity (Splenic lymphocyte [1]) | Activity (Splenic lymphocyte [2]) | Activity (Splenic lymphocyte [3]) | Activity (Splenic lymphocyte [4]) | Activity (Splenic lymphocyte [5]) | Activity (Splenic lymphocyte [6])
1 | Cc1ccccc1C1=NOC(COc2ccc3ccc(=O)oc3c2)C1 (centres undefined) | Dose-dependent effect | Dose-dependent effect |  |  |  | 
2 | O=c1ccc2ccc(OCC3CC(c4cccc5ccccc45)=NO3)cc2o1 (centres undefined) |  |  | Active | Active | Active | Active
3 | O=c1ccc2ccc(OCC3CC(c4ccc(F)cc4)=NO3)cc2o1 (centres undefined) |  |  | Active | Active | Active | Active
4 | Cc1ccc(C2=NOC(COc3ccc4ccc(=O)oc4c3)C2)cc1 (centres undefined) | Dose-dependent effect | Dose-dependent effect |  |  |  | 
5 | COc1cccc(C2=NOC(COc3ccc4ccc(=O)oc4c3)C2)c1 (centres undefined) | Dose-dependent effect | Dose-dependent effect |  |  |  | 
